Assay results as given in patent US12565522B2, “Micropeptide HMMW and application thereof” (NANJING ANJI BIOTECHNOLOGY CO., LTD., priority 2019, dated 2026).
No end group written: not given here.

Columns and labels:
Test in all cases: transwell migration test
Type in all cases: cell-based, human
Settings in all cases: 24 h
[1] = tested on: A431 cells of skin cancer
Description: (§1) Inoculate SCC4 cells of head and neck cancer, SW579 cells of thyroid cancer, A549 cells of lung cancer, TE13 cells of esophageal squamous cell carcinoma, MGC803 cells of stomach cancer, MDA-MB-231 cells of breast cancer, UOK262 cells of kidney cancer, and A431 cells of skin cancer of human to transwell cells, 100 μL per well, and meanwhile add micropeptides HMMW I to IX at different doses to every cell. Add 0.6 mL of complete medium containing 10% FBS to the transwell cells to stimulate cell migration, and culture in 5% CO2 at 37 DEG C. for 24 h. Discard the medium in the wells, fix with 90% alcohol at room temperature for 30 min, stain with 0.1% crystal violet at room temperature for 10 min, rinse with clear water, gently wipe off the non-migrated cells in the upper layer with a cotton swab, observe under a microscope and select four fields of view to take pictures and count. Calculate the migration inhibition rate (MIR) of the cells according to the following formula: […]
(§2) The test was repeated independently three times. Mean±SD was calculated based on the test results. Statistical t test was done. Here, “the test was repeated independently three times” means that every dose of any type of cells was tested repeatedly three times, and then the above formula was used to calculate the number of migrated cells (Mean±SD). Value P was used to express statistical difference. The statistical significance of the results is a method for estimating how true the results are (the totality can be represented), *P<0.05 means significant difference, and **P<0.01 means very significant difference.

[2] = tested on: A549 cells of lung cancer
Description: as §1, §2

[3] = tested on: MDA-MB-231 cells of breast cancer
Description: as §1, §2

[4] = tested on: MGC803 cells of stomach cancer
Description: as §1, §2

[5] = tested on: SCC4 cells of head and neck cancer
Description: as §1, §2

[6] = tested on: SW579 cells of thyroid cancer
Description: as §1, §2

[7] = tested on: UOK262 cells of kidney cancer
Description: as §1, §2

Substance	migration inhibition rate ([1]; dose 1 μM) [%]	migration inhibition rate ([1]; dose 4 μM) [%]	migration inhibition rate ([1]; dose 16 μM) [%]	migration inhibition rate ([2]; dose 1 μM) [%]	migration inhibition rate ([2]; dose 4 μM) [%]	migration inhibition rate ([2]; dose 16 μM) [%]	migration inhibition rate ([3]; dose 1 μM) [%]	migration inhibition rate ([3]; dose 4 μM) [%]	migration inhibition rate ([3]; dose 16 μM) [%]	migration inhibition rate ([4]; dose 1 μM) [%]	migration inhibition rate ([4]; dose 4 μM) [%]	migration inhibition rate ([4]; dose 16 μM) [%]	migration inhibition rate ([5]; dose 1 μM) [%]	migration inhibition rate ([5]; dose 4 μM) [%]	migration inhibition rate ([5]; dose 16 μM) [%]	migration inhibition rate ([6]; dose 1 μM) [%]	migration inhibition rate ([6]; dose 4 μM) [%]	migration inhibition rate ([6]; dose 16 μM) [%]	migration inhibition rate ([7]; dose 1 μM) [%]	migration inhibition rate ([7]; dose 4 μM) [%]	also measured
MERAGVPGFSPRRSSVEAKMQSTSCSVRKSSTVTAWPAVVLLLSWGQRDEE-OH [HMMW-VI]	33.19	55.17	70.23	32.00	51.90	70.46	27.06	50.34	74.38	26.64	51.45	72.80	16.69	42.81	71.04	19.81	52.03	70.91	17.32	40.38	migration inhibition rate ([7]; dose 16 μM): 72.47%
MGSTGVPGFSPRRSSVEAKMQSTSCSVRKSSTVTAWPAVVLLLSWGQRRGG-OH [HMMW-VII]	32.10	52.22	70.11	35.01	53.91	71.36	28.27	50.14	72.15	26.60	51.31	70.62	17.42	44.61	72.34	20.80	53.13	70.92	19.24	40.21	migration inhibition rate ([7]; dose 16 μM): 72.40%
MGRAGVPGFSPRRSSVEAKMQSTSCSVRKSSTVTAWPAVVLLLSWGQRRGG-OH [HMMW-IX]	33.19	55.17	73.22	36.00	52.95	71.46	26.06	52.34	73.38	25.61	51.45	74.80	18.81	43.97	74.00	17.81	50.03	71.98	17.39	43.38	migration inhibition rate ([7]; dose 16 μM): 70.47%
MERAGVPGFSPRRSSVEAKMQSTSCSVRKSSTVTAWPAVVLLLSWGKDDEE-OH [HMMW-IV]	32.19	54.17	71.24	33.00	52.91	71.46	29.06	51.34	73.38	25.60	52.45	74.80	16.84	43.91	75.04	18.81	50.03	71.91	16.32	41.38	migration inhibition rate ([7]; dose 16 μM): 70.47%
MERAGVPGFSPRRSSVEAKMQSTSCSVRKSSTVTAWPAVVLLLHTSKDDEE-OH [HMMW-II]	31.14	53.12	71.12	34.01	52.91	72.36	27.07	51.24	73.18	25.64	52.41	73.82	18.81	43.67	75.04	18.80	50.13	71.92	16.29	41.28	migration inhibition rate ([7]; dose 16 μM): 70.43%
MGSTYNPGFSPRRSSVEAKMQSTSCSVRKSSTVTAWPAVVLLLSWGQRRGG-OH [HMMW-V]	30.14	54.12	70.12	35.01	53.91	71.36	28.07	50.24	74.18	27.64	54.41	75.82	18.36	44.67	71.04	17.45	51.13	71.93	18.29	42.28	migration inhibition rate ([7]; dose 16 μM): 72.43%
MGSTYNKRHSPRRSSVEAKMQSTSCSVRKSSTVTAWPAVVLLLSWGQRRGG-OH [HMMW-III]	32.13	54.27	72.21	33.01	54.93	72.42	27.06	51.34	74.38	25.61	52.45	74.80	16.81	43.94	74.01	18.83	50.04	71.92	16.39	41.38	migration inhibition rate ([7]; dose 16 μM): 70.47%
MERAGVPGFSPRRSSVEAKMQSTSCSVRKSSTVTAWPAVVLLLSWGQRRGE-OH [HMMW-VIII]	33.10	53.37	71.20	32.06	51.90	73.40	26.14	50.24	73.32	24.60	53.43	73.81	17.80	42.92	72.35	18.81	52.05	70.90	18.29	43.48	migration inhibition rate ([7]; dose 16 μM): 71.45%
